Values after ≈ are worked out from the molar mass of the structure shown. Where two headings read alike, the source gives them in different places.
How the values were obtained:
[1] = system: Escherichia coli NIHJ; assay: Minimum Inhibitory Concentration (standard method of the Japan Society of Chemotherapy); assay type: cell-based; details: Muller-Hinton bouillon, 10^6/ml bacteria, 37° C., 18 hours
Protocol: (§1) Determined by the standard method of the Japan Society of Chemotherapy: i
(§2) MullerHinton bouillon, 10^6 /ml of bacteria were seeded and incubated
(§3) at 37° C. for 18 hours.

[2] = system: Proteus vulgaris 3167; assay: as above; assay type: cell-based; details: read-out: Minimum Inhibitory Concentration (MIC)
Protocol: as §1, §2, §3

[3] = system: Pseudomonas aeruginosa 2131; assay: as above; assay type: cell-based; details: read-out: Minimum Inhibitory Concentration (MIC)
Protocol: as §1, §2, §3

[4] = system: Pseudomonas cepacia IID 1340; assay: as above; assay type: cell-based; details: Burkholderia cepacia, read-out: Minimum Inhibitory Concentration (MIC)
Protocol: as §1, §2, §3

[5] = system: Pseudomonas maltophilia IID 1275; assay: as above; assay type: cell-based; details: Stenotrophomonas maltophilia, read-out: Minimum Inhibitory Concentration (MIC)
Protocol: as §1, §2, §3

[6] = system: Serratia marcessens 13001; assay: as above; assay type: cell-based; details: Muller-Hinton bouillon, 10^6/ml bacteria, 37° C., 18 hours
Protocol: as §1, §2, §3

[7] = system: Staphylococcus aureus Smith; assay: as above; assay type: cell-based; details: read-out: Minimum Inhibitory Concentration (MIC)
Protocol: as §1, §2, §3

[8] = system: Staphylococcus epidermidis 56556; assay: as above; assay type: cell-based; details: read-out: Minimum Inhibitory Concentration (MIC)
Protocol: as §1, §2, §3

[9] = system: Streptococcus faecalis ATCC 19433; assay: as above; assay type: cell-based; details: Enterococcus faecalis, read-out: Minimum Inhibitory Concentration (MIC)
Protocol: as §1, §2, §3

[10] = system: gram-positive and gram-negative bacteria; assay: antibacterial activity (statement in words); assay type: cell-based
[11] = pharmacokinetic properties: blood level, intestinal absorption (statement in words); assay type: in vivo; details: in comparison with cyprofloxacin
[12] = Proteus vulgaris 3167, Muller-Hinton bouillon, 10^6/ml bacteria, 37° C., 18 hours
[13] = Pseudomonas aeruginosa 2131, Muller-Hinton bouillon, 10^6/ml bacteria, 37° C., 18 hours
[14] = IID1340, Pseudomonas cepacia IID 1340, Muller-Hinton bouillon, 10^6/ml bacteria, 37° C., 18 hours
[15] = IID1275, Pseudomonas maltophilia IID 1275, Muller-Hinton bouillon, 10^6/ml bacteria, 37° C., 18 hours
[16] = Staphylococcus aureus Smith, Muller-Hinton bouillon, 10^6/ml bacteria, 37° C., 18 hours
[17] = Staphylococcus epidermidis 56556, Muller-Hinton bouillon, 10^6/ml bacteria, 37° C., 18 hours
[18] = ATCC19433, Streptococcus faecalis ATCC 19433, Muller-Hinton bouillon, 10^6/ml bacteria, 37° C., 18 hours

SMILES | MIC [1] | MIC [2, 12] | MIC [3, 13] | MIC [4, 14] | MIC [5, 15] | MIC [6] | MIC [7, 16] | MIC [8, 17] | MIC [9, 18] | antibacterial activity [10] | blood level [11] | intestinal absorption [11] | MIC ([2]; Proteus vulgaris, 3167, 18 h) | MIC ([3]; Pseudomonas aeruginosa, 2131, 18 h) | MIC ([4]; IID1340, 18 h) | MIC ([5]; IID1275, 18 h) | MIC ([7]; Staphylococcus aureus, 18 h) | MIC ([8]; Staphylococcus epidermidis, 56556, 18 h) | MIC ([9]; ATCC19433, 18 h)
CN1CCN(c2c(F)cc3c(=O)c(C(=O)O)cn(C4CC4)c3c2F)CC1 [Ba-3, 1cyclopropyl-6,8-difluoro-1,4-dihydro-7-(4-methyl-1-piperazinyl)-4-oxoquinoline-3-carboxylic acid, reference compound] | ≤ 0.05 µg/mL | ≤ 0.05 µg/mL | 0.2 µg/mL (≈ 0.55 µM) | 0.78 µg/mL (≈ 2.15 µM) | ≤ 0.05 µg/mL | ≤ 0.05 µg/mL | 0.2 µg/mL (≈ 0.55 µM) | 0.2 µg/mL (≈ 0.55 µM) | 0.78 µg/mL (≈ 2.15 µM) | – | – | – | – | – | – | – | – | – | –
CN1CCN(c2cc3c(cc2F)c(=O)c(C(=O)O)cn3[C@@H]2C[C@@H]2F)CC1 (relative stereo) [Ia-1, 1-(cis-2-fluorocyclopropyl)-6-fluoro-1,4-dihydro-7-(4-methyl-1-piperazinyl)-4-oxoquinoline-3-carboxylic acid] | ≤ 0.05 µg/mL | ≤ 0.05 µg/mL | 0.2 µg/mL (≈ 0.55 µM) | 0.2 µg/mL (≈ 0.55 µM) | 0.2 µg/mL (≈ 0.55 µM) | ≤ 0.05 µg/mL | ≤ 0.05 µg/mL | 0.1 µg/mL (≈ 0.275 µM) | 0.78 µg/mL (≈ 2.15 µM) | strong antibacterial activity | high blood level | good intestinal absorption | – | – | – | – | – | – | –
O=C(O)c1cn([C@@H]2C[C@@H]2F)c2cc(N3CCNCC3)c(F)cc2c1=O (relative stereo) [Ia-2, 1-(cis-2-fluorocyclopropyl)-6-fluoro-1,4-dihydro-7-(1-piperazinyl)-4-oxoquinoline-3-carboxylic acid] | ≤ 0.05 µg/mL | ≤ 0.05 µg/mL | ≤ 0.05 µg/mL | 1.56 µg/mL (≈ 4.47 µM) | 0.78 µg/mL (≈ 2.23 µM) | ≤ 0.05 µg/mL | 0.1 µg/mL (≈ 0.286 µM) | 0.2 µg/mL (≈ 0.573 µM) | 1.56 µg/mL (≈ 4.47 µM) | – | – | – | – | – | – | – | – | – | –
CN1CCN(c2cc3c(cc2F)c(=O)c(C(=O)O)cn3C2CC2)CC1 [Ba-1, 1cyclopropyl-6-fluoro-1,4-dihydro-7-(4-methyl-1-piperazinyl)-4-oxoquinoline-3-carboxylic acid, reference compound] | ≤ 0.05 µg/mL | ≤ 0.05 µg/mL | 0.1 µg/mL (≈ 0.29 µM) | 0.78 µg/mL (≈ 2.26 µM) | 0.2 µg/mL (≈ 0.579 µM) | 0.1 µg/mL (≈ 0.29 µM) | 0.2 µg/mL (≈ 0.579 µM) | 0.39 µg/mL (≈ 1.13 µM) | 0.78 µg/mL (≈ 2.26 µM) | – | – | – | – | – | – | – | – | – | –
O=C(O)c1cn([C@@H]2C[C@@H]2F)c2c(F)c(N3CCNCC3)c(F)cc2c1=O (relative stereo) [Ib-2, 1-(2-fluorocyclopropyl)-6,8-difluoro-1,4-dihydro-7-(1-piperazinyl)-4-oxoquinoline-3-carboxylic acid] | ≤ 0.05 µg/mL | ≤ 0.05 µg/mL | ≤ 0.05 µg/mL | 1.56 µg/mL (≈ 4.25 µM) | 0.78 µg/mL (≈ 2.12 µM) | ≤ 0.05 µg/mL | 0.1 µg/mL (≈ 0.272 µM) | 0.2 µg/mL (≈ 0.544 µM) | 1.56 µg/mL (≈ 4.25 µM) | – | – | – | – | – | – | – | – | – | –
CN1CCN(c2c(F)cc3c(=O)c(C(=O)O)cn([C@@H]4C[C@@H]4F)c3c2F)CC1 (relative stereo) [Ib-1, 1-(2-fluorocyclopropyl)-6,8-difluoro-1,4-dihydro-7-(4-methyl-1-piperazinyl)-4-oxoquinoline-3-carboxylic acid] | ≤ 0.05 µg/mL | ≤ 0.05 µg/mL | 0.1 µg/mL (≈ 0.262 µM) | 0.78 µg/mL (≈ 2.05 µM) | 0.1 µg/mL (≈ 0.262 µM) | ≤ 0.05 µg/mL | 0.1 µg/mL (≈ 0.262 µM) | 0.2 µg/mL (≈ 0.524 µM) | 0.78 µg/mL (≈ 2.05 µM) | – | – | – | – | – | – | – | – | – | –
O=C(O)c1cn(C2CC2)c2c(F)c(N3CCNCC3)c(F)cc2c1=O [Ba-4, 1cyclopropyl-6,8-difluoro-1,4-dihydro-7-(1-piperazinyl)-4-oxoquinoline-3-carboxylic acid, reference compound] | ≤ 0.05 µg/mL | ≤ 0.05 µg/mL | ≤ 0.05 µg/mL | 0.39 µg/mL (≈ 1.12 µM) | 0.39 µg/mL (≈ 1.12 µM) | ≤ 0.05 µg/mL | 0.2 µg/mL (≈ 0.573 µM) | 0.2 µg/mL (≈ 0.573 µM) | 0.78 µg/mL (≈ 2.23 µM) | – | – | – | – | – | – | – | – | – | –
O=C(O)c1cn(C2CC2)c2cc(N3CCNCC3)c(F)cc2c1=O [Ba-2, 1-cyclopropyl-6-fluoro-1,4-dihydro-7-(1-piperazinyl)-4-oxoquinoline-3-carboxylic acid, reference compound] | ≤ 0.05 µg/mL | – | – | – | – | ≤ 0.05 µg/mL | – | – | – | – | – | – | ≤ 0.05 µg/mL | ≤ 0.05 µg/mL | 3.13 µg/mL (≈ 9.45 µM) | 0.78 µg/mL (≈ 2.35 µM) | 0.1 µg/mL (≈ 0.302 µM) | 0.2 µg/mL (≈ 0.604 µM) | 0.78 µg/mL (≈ 2.35 µM)
